Experimental data published in PubChem BioAssay AID248 (DTP/NCI, 2004).
“And” between values parts separate entries of the source, which are not always exact repeats. Identical values can stand only once. Inconclusive results and toxic doses are left out. Rule as the data show it: active = T/C of 150% or more; inactive = T/C below 125%.

Tested on: L1210 leukemia ip in BDF1 mice, survival T/C
Assay: NCI In Vivo Anticancer Drug Screen. Data for tumor model L1210 Leukemia (intraperitoneal) in B6D2F1 (BDF1) mice
Details: endpoint: mean survival time, higher = longer survival
How it was run: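 Transplantable tumor model; survival measured in treated vs vehicle control mice. Value = treated/control.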

[1] = dose: 50.0 mg/kg/injection, schedule: Q01DX009 (ip), vehicle: saline
[2] = dose: 100.0 mg/kg/injection, schedule: Q04DX003 (ip), vehicle: saline
[3] = dose: 200.0 mg/kg/injection, schedule: Q04DX003 (ip), vehicle: saline
[4] = dose: 400.0 mg/kg/injection, schedule: Q04DX003 (ip), vehicle: saline
[5] = dose: 100.0 mg/kg/injection, schedule: Q04DX003 (ip), vehicle: saline with Tween-80
[6] = dose: 200.0 mg/kg/injection, schedule: Q04DX003 (ip), vehicle: saline with Tween-80
[7] = dose: 400.0 mg/kg/injection, schedule: Q04DX003 (ip), vehicle: saline with Tween-80
[8] = dose: 100.0 mg/kg/injection, schedule: Q01DX001 (ip), vehicle: saline
[9] = dose: 200.0 mg/kg/injection, schedule: Q01DX001 (ip), vehicle: saline
[10] = dose: 400.0 mg/kg/injection, schedule: Q01DX001 (ip), vehicle: saline
[11] = dose: 100.0 mg/kg/injection, schedule: Q01DX001 (ip), vehicle: carboxymethylcellulose (CMC)
[12] = dose: 200.0 mg/kg/injection, schedule: Q01DX001 (ip), vehicle: carboxymethylcellulose (CMC)

Measured: T/C

NC(=O)NN=C1COC(c2ccccc2)OC1 (stereo not given)
inactive: [1] 98 % of control | dose: 100.0 mg/kg/injection, schedule: Q01DX009 (ip), vehicle: saline 89 % of control | [2] 101 % of control | [3] 93 % of control

O=C(O)C(C=C(Cl)Cl)N1CCCCC1 (stereo not given)
inactive: [2] 98 % of control | [3] 93 % of control | [4] 94 % of control

COc1ccccc1C(C(C)C)C(C)C
inactive: [5] 105 % of control | [6] 101 % of control

O=CC1c2ccccc2C(C=O)c2c1ccc1ccccc21 (stereo not given)
inactive: dose: 50.0 mg/kg/injection, schedule: Q01DX001 (ip), vehicle: Klucel (hydroxypropylcellulose) (HPC) 93 % of control | dose: 100.0 mg/kg/injection, schedule: Q01DX001 (ip), vehicle: Klucel (hydroxypropylcellulose) (HPC) 91 % of control | dose: 200.0 mg/kg/injection, schedule: Q01DX001 (ip), vehicle: Klucel (hydroxypropylcellulose) (HPC) 100 % of control

Nc1ccc(Cl)cc1-c1nc2ccccc2[nH]1
inactive: [5] 91 % of control | [6] 95 % of control | [7] 91 % of control

CCCCOCCOCCOc1ccc(Cl)cc1
inactive: dose: 100.0 mg/kg/injection, schedule: Q04DX002 (ip), vehicle: saline 100 % of control | dose: 200.0 mg/kg/injection, schedule: Q04DX002 (ip), vehicle: saline 113 % of control | dose: 400.0 mg/kg/injection, schedule: Q04DX002 (ip), vehicle: saline 100 % of control

CC[CH2][Sn]([CH2]CC)([CH2]CC)[O][Sn]([CH2]CC)([CH2]CC)[CH2]CC
inactive: dose: 0.5 mg/kg/injection, schedule: Q01DX009 (ip), vehicle: saline 95 % of control | dose: 1.0 mg/kg/injection, schedule: Q01DX009 (ip), vehicle: saline 100 % of control | dose: 1.0 mg/kg/injection, schedule: Q04DX003 (ip), vehicle: saline with Tween-80 97 % of control | dose: 2.0 mg/kg/injection, schedule: Q01DX009 (ip), vehicle: saline 93 % of control | dose: 2.0 mg/kg/injection, schedule: Q04DX003 (ip), vehicle: saline with Tween-80 90 % of control

CCCCCCCCCCCCCCc1sc(N)nc1-c1ccccc1
inactive: [8] 98 % of control | [9] 98 % of control | [10] 95 % of control

COC1=C(C)C(=O)c2c(c(COC(N)=O)c3n2CC2C3N2C)C1=O (stereo not given)
inactive: dose: 1.0 mg/kg/injection, schedule: Q01DX009 (ip), vehicle: carboxymethylcellulose (CMC) 123 % of control | dose: 1.8 mg/kg/injection, schedule: Q01DX009 (ip), vehicle: carboxymethylcellulose (CMC) 105 % of control | dose: 1.9 mg/kg/injection, schedule: Q01DX001 (ip), vehicle: other 116 % of control and 122 % of control | dose: 2.9 mg/kg/injection, schedule: Q01DX001 (ip), vehicle: other 119 % of control | dose: 4.5 mg/kg/injection, schedule: Q01DX001 (ip), vehicle: other 122 % of control | dose: 6.7 mg/kg/injection, schedule: Q01DX001 (ip), vehicle: other 123 % of control

C1=C[N]2c3c4c(ccc3=C1)=CC=C[N]4[Ga]2[c]1ccccc1
inactive: dose: 25.0 mg/kg/injection, schedule: Q04DX003 (ip), vehicle: saline with Tween-80 88 % of control | dose: 50.0 mg/kg/injection, schedule: Q04DX003 (ip), vehicle: saline with Tween-80 97 % of control | [5] 101 % of control

C[N+](C)(CCNCc1ccccc1)Cc1ccccc1
inactive: [8] 102 % of control | [9] 100 % of control | [10] 100 % of control

CCN(CC)CCN(C(=O)Cc1cccc2ccccc12)c1ccccc1N
inactive: dose: 19.0 mg/kg/injection, schedule: Q04DX003 (ip), vehicle: acid diluted with saline 94 % of control | dose: 38.0 mg/kg/injection, schedule: Q04DX003 (ip), vehicle: acid diluted with saline 102 % of control | dose: 75.0 mg/kg/injection, schedule: Q01DX001 (ip), vehicle: acid diluted with saline 105 % of control | dose: 75.0 mg/kg/injection, schedule: Q04DX003 (ip), vehicle: acid diluted with saline 100 % of control

COc1cc(O)c(C(C)=O)c(OC)c1
inactive: dose: 100.0 mg/kg/injection, schedule: Q01DX009 (ip), vehicle: saline with Tween-80 98 % of control | [5] 101 % of control | dose: 200.0 mg/kg/injection, schedule: Q01DX009 (ip), vehicle: saline with Tween-80 96 % of control | [6] 95 % of control | dose: 400.0 mg/kg/injection, schedule: Q01DX009 (ip), vehicle: saline with Tween-80 90 % of control | [7] 93 % of control

CN(C)CCOCCN(C)C
inactive: [8] 102 % of control | [9] 105 % of control | [10] 102 % of control

CCN(CC)CCCC(C)Nc1c2ccc(Cl)cc2nc2cc(Cl)ccc12 (stereo not given)
inactive: dose: 25.0 mg/kg/injection, schedule: Q01DX009 (ip), vehicle: saline 92 % of control | dose: 25.0 mg/kg/injection, schedule: Q04DX003 (ip), vehicle: saline 100 % of control | [1] 95 % of control | dose: 50.0 mg/kg/injection, schedule: Q04DX003 (ip), vehicle: saline 98 % of control | [2] 93 % of control and 86 % of control

COC(=O)CC(c1ccc(Cl)cc1)N1CCCCC1 (stereo not given)
inactive: [8] 98 % of control | [9] 102 % of control | [10] 96 % of control

O=c1nc(NC2OC(CO)C(O)C2O)ccn1C1OC(CO)C(O)C1O (stereo not given)
inactive: dose: 100.0 mg/kg/injection, schedule: Q01DX005 (ip), vehicle: saline 102 % of control | dose: 200.0 mg/kg/injection, schedule: Q01DX005 (ip), vehicle: saline 108 % of control

Nc1nccnc1C(=O)O
inactive: dose: 25.0 mg/kg/injection, schedule: Q01DX009 (ip), vehicle: water 100 % of control | dose: 50.0 mg/kg/injection, schedule: Q01DX009 (ip), vehicle: water 96 % of control | dose: 100.0 mg/kg/injection, schedule: Q01DX009 (ip), vehicle: water 100 % of control | dose: 200.0 mg/kg/injection, schedule: Q01DX009 (ip), vehicle: water 96 % of control

CCC1([N+](=O)[O-])COP(=O)(N2CC2)OC1 (stereo not given)
inactive: [11] 106 % of control | [12] 116 % of control

Cc1nc2c(Cl)cc(Cl)cc2c2c1-c1ccccc1C2=O
inactive: dose: 100.0 mg/kg/injection, schedule: Q04DX003 (ip), vehicle: acetone 89 % of control | dose: 200.0 mg/kg/injection, schedule: Q04DX003 (ip), vehicle: acetone 89 % of control | dose: 400.0 mg/kg/injection, schedule: Q04DX003 (ip), vehicle: acetone 97 % of control

CN1CCCC(OC(=O)N(C)C)C1 (stereo not given)
inactive: [2] 98 % of control | [3] 98 % of control | [4] 98 % of control

Cc1nc(C)c(C(=O)N/N=C/c2ccc(N(CCCl)CCCl)cc2)s1
inactive: dose: 50.0 mg/kg/injection, schedule: Q01DX001 (ip), vehicle: carboxymethylcellulose (CMC) 94 % of control | [11] 94 % of control | [12] 97 % of control | dose: 400.0 mg/kg/injection, schedule: Q01DX001 (ip), vehicle: carboxymethylcellulose (CMC) 94 % of control

N#CCC(CC#N)C(c1cccc2ccccc12)c1cccc2ccccc12
inactive: dose: 75.0 mg/kg/injection, schedule: Q04DX002 (ip), vehicle: Klucel (hydroxypropylcellulose) (HPC) 94 % of control | dose: 150.0 mg/kg/injection, schedule: Q04DX002 (ip), vehicle: Klucel (hydroxypropylcellulose) (HPC) 101 % of control | dose: 300.0 mg/kg/injection, schedule: Q04DX002 (ip), vehicle: Klucel (hydroxypropylcellulose) (HPC) 90 % of control

CC(C)(CBr)C(=O)N1CCN(C(=O)C(C)(C)CBr)CC1
inactive: dose: 6.2 mg/kg/injection, schedule: Q01DX Z (ip), vehicle: carboxymethylcellulose (CMC) 109 % of control | dose: 9.2 mg/kg/injection, schedule: Q01DX Z (ip), vehicle: methylcellulose (MC) 94 % of control | dose: 9.4 mg/kg/injection, schedule: Q01DX Z (ip), vehicle: carboxymethylcellulose (CMC) 118 % of control | dose: 14.0 mg/kg/injection, schedule: Q01DX Z (ip), vehicle: carboxymethylcellulose (CMC) 116 % of control | dose: 14.0 mg/kg/injection, schedule: Q01DX Z (ip), vehicle: methylcellulose (MC) 103 % of control | dose: 21.0 mg/kg/injection, schedule: Q01DX Z (ip), vehicle: carboxymethylcellulose (CMC) 121 % of control | dose: 21.0 mg/kg/injection, schedule: Q01DX Z (ip), vehicle: methylcellulose (MC) 103 % of control | dose: 42.0 mg/kg/injection, schedule: Q01DX Z (ip), vehicle: methylcellulose (MC) 111 % of control | dose: 50.0 mg/kg/injection, schedule: Q01DX Z (ip), vehicle: methylcellulose (MC) 121 % of control | dose: 68.0 mg/kg/injection, schedule: Q01DX Z (ip), vehicle: methylcellulose (MC) 98 % of control
